Laboratory results published in patent publication US20100056563A1, “NOVEL 1.8-NAPHTHYRIDINE COMPOUNDS” (priority 2007, published 2010).

What follows are compounds tested against T1, FLAG-tagged full length PHD2 (Homo sapiens, UniProt Q9GZT9) (assay: HIF-PHD2 time resolved fluorescence inhibition assay (HIF-1α peptide hydroxylation, VHL complex detection)). Details: 0.2 μM 2-oxoglutarate, 0.5 μM HIF-1α peptide, 2 hr at room temperature.
T1 construct: FLAG-tagged full length PHD2; FLAG; made in house; host or cells: baculovirus-infected Sf9 cells
Format: biochemical
Description: To each well of a 96-well plate was added […] of test compound in DMSO and 20 μl of assay buffer (50 mM Tris pH 7.4/0.01% Tween-20/0.1 mg/ml bovine serum albumin/10 μM ferrous sulfate/1 mM sodium ascorbate/20 μg/ml catalase) containing 0.15 μg/ml FLAG-tagged full length PHD2 expressed in and purified from baculovirus-infected Sf9 cells. After a […] preincubation at room temperature, the enzymatic reactions were initiated by the addition of 4 μL of substrates (final concentrations of 0.2 μM 2-oxoglutarate and 0.5 μM HIF-1α peptide biotinyl-DLDLEMLAPYIPMDDDFQL). After 2 hr at room temperature, the reactions were terminated and signals were developed by the addition of a 25 μL quench/detection mix to a final concentration of 1 mM ortho-phenanthroline, 0.1 mM EDTA, 0.5 nM anti-(His)6 LANCE reagent (Perkin-Elmer Life Sciences), 100 nM AF647-labeled streptavidin (Invitrogen), and 2 μg/ml (His)6-VHL complex (S. Tan (2001) Protein Expr. Purif. 21, 224-234). The ratio of time resolved fluorescence signals at 665 and 620 nm was determined, and percent inhibition was calculated relative to an uninhibited control sample run in parallel.

T1 sequence (Q9GZT9 whole entry): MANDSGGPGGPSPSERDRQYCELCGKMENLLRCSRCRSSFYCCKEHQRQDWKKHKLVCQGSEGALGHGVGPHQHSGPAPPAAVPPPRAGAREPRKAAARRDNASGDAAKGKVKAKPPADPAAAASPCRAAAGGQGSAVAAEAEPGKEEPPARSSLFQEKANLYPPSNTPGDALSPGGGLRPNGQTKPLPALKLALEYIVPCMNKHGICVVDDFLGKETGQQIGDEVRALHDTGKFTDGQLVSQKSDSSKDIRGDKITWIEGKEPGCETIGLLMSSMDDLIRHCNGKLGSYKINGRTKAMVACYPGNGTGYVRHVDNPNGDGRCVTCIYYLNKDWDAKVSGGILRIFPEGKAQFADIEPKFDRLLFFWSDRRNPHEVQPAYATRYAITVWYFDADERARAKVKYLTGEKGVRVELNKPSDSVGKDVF

| Compound | IC50 [nM] |
| --- | --- |
| O=C(O)CNC(=O)c1c(O)c2cccnc2n(Cc2ccc(C(F)(F)F)cc2)c1=O [Example 1, N-({4-Hydroxy-2-oxo-1-[4-(trifluoromethyl)benzyl]-1,2-dihydro-1,8-naphthyridin-3-yl}carbonyl)glycine] | 2.1 |
| O=C(O)CNC(=O)c1c(O)c2cccnc2n(Cc2ccc(Br)cc2)c1=O [Example 3, N-{[1-(4-Bromobenzyl)-4-hydroxy-2-oxo-1,2-dihydro-1,8-naphthyridin-3-yl]carbonyl}glycine] | 1.9 |
| Cc1ccc(Cn2c(=O)c(C(=O)NCC(=O)O)c(O)c3cccnc32)cc1 [Example 5, N-{[1-(4-Methylbenzyl)-4-hydroxy-2-oxo-1,2-dihydro-1,8-naphthyridin-3-yl]carbonyl}glycine] | 1.8 |
| C[C@H](NC(=O)c1c(O)c2cccnc2n(Cc2ccc(C(F)(F)F)cc2)c1=O)C(=O)O [Example 11, N-({4-Hydroxy-2-oxo-1-[4-(trifluoromethyl)benzyl]-1,2-dihydro-1,8-naphthyridin-3-yl}carbonyl)-L-alanine] | 6 |
| C[C@@H](NC(=O)c1c(O)c2cccnc2n(Cc2ccc(C(F)(F)F)cc2)c1=O)C(=O)O [Example 12, N-({4-Hydroxy-2-oxo-1-[4-(trifluoromethyl)benzyl]-1,2-dihydro-1,8-naphthyridin-3-yl}carbonyl)-D-alanine] | 1100 |
| O=C(N[C@@H](CO)C(=O)O)c1c(O)c2cccnc2n(Cc2ccc(C(F)(F)F)cc2)c1=O [Example 14, N-({1-[4-(trifluoromethyl)benzyl]-4-hydroxy-2-oxo-1,2-dihydro-1,8-naphthyridin-3-yl}carbonyl)-L-serine] | 160 |
| O=C(O)C[C@H](NC(=O)c1c(O)c2cccnc2n(Cc2ccc(C(F)(F)F)cc2)c1=O)C(=O)O [Example 15, N-({1-[4-(trifluoromethyl)benzyl]-4-hydroxy-2-oxo-1,2-dihydro-1,8-naphthyridin-3-yl}carbonyl)-L-aspartic acid] | 25 |
| CC[C@H](NC(=O)c1c(O)c2cccnc2n(Cc2ccc(C(F)(F)F)cc2)c1=O)C(=O)O [Example 17, (2S)-2-[({4-Hydroxy-2-oxo-1-[4-(trifluoromethyl)benzyl]-1,2-dihydro-1,8-naphthyridin-3-yl}carbonyl)amino]butanoic acid] | 160 |
| C#CCn1c(=O)c(C(=O)NCC(=O)O)c(O)c2cccnc21 [Example 18, N-[(4-Hydroxy-2-oxo-1-prop-2-yn-1-yl-1,2-dihydro-1,8-naphthyridin-3-yl)carbonyl]glycine] | 21 |
| CCOC(=O)Cn1c(=O)c(C(=O)NCC(=O)O)c(O)c2cccnc21 [Example 23, N-{[1-(2-Ethoxy-2-oxoethyl)-4-hydroxy-2-oxo-1,2-dihydro-1,8-naphthyridin-3-yl]carbonyl}glycine] | 8.5 |
| CC(C)(C)c1csc(Cn2c(=O)c(C(=O)NCC(=O)O)c(O)c3cccnc32)n1 [Example 25, N-({1-[(4-tert-Butyl-1,3-thiazol-2-yl)methyl]-4-hydroxy-2-oxo-1,2-dihydro-1,8-naphthyridin-3-yl}carbonyl)glycine] | 2 |
| O=C(O)CNC(=O)c1c(O)c2cccnc2n(Cc2nnc(-c3ccccc3)o2)c1=O [Example 27, N-({4-Hydroxy-2-oxo-1-[(5-phenyl-1,3,4-oxadiazol-2-yl)methyl]-1,2-dihydro-1,8-naphthyridin-3-yl}carbonyl)glycine] | 2.6 |

The next compounds have a lower IC50 than those just listed; values first:

| IC50 [nM] | Compound |
| --- | --- |
| 1.6 | O=C(O)CNC(=O)c1c(O)c2cccnc2n(Cc2ccc(Cl)cc2)c1=O [Example 2, N-{[1-(4-Chlorobenzyl)-4-hydroxy-2-oxo-1,2-dihydro-1,8-naphthyridin-3-yl]carbonyl}glycine] |
| 1.6 | N#Cc1ccc(Cn2c(=O)c(C(=O)NCC(=O)O)c(O)c3cccnc32)cc1 [Example 4, N-{[1-(4-Cyanobenzyl)-4-hydroxy-2-oxo-1,2-dihydro-1,8-naphthyridin-3-yl]carbonyl}glycine] |
| 1.6 | O=C(O)CNC(=O)c1c(O)c2cccnc2n(Cc2ccc(C(F)(F)F)cc2F)c1=O [Example 6, N-{[1-(2-Fluoro-4-trifluoromethylbenzyl)-4-hydroxy-2-oxo-1,2-dihydro-1,8-naphthyridin-3-yl]carbonyl}glycine] |
| 1.5 | COc1ccc2c(O)c(C(=O)NCC(=O)O)c(=O)n(Cc3ccc(C(F)(F)F)cc3)c2n1 [Example 7, N-({4-Hydroxy-7-methoxy-2-oxo-1-[4-(trifluoromethyl)benzyl]-1,2-dihydro-1,8-naphthyridin-3-yl}carbonyl)glycine] |
| 0.7 | O=C(O)CNC(=O)c1c(O)c2cccnc2n(Cc2nc3ccccc3s2)c1=O [Example 8, N-{[1-(1,3-Benzothiazol-2-ylmethyl)-4-hydroxy-2-oxo-1,2-dihydro-1,8-naphthyridin-3-yl]carbonyl}glycine] |
| 1.3 | O=C(O)CNC(=O)c1c(O)c2cc(I)cnc2n(Cc2ccc(C(F)(F)F)cc2)c1=O [Example 9, N-({4-Hydroxy-6-iodo-2-oxo-1-[4-(trifluoromethyl)benzyl]-1,2-dihydro-1,8-naphthyridin-3-yl}carbonyl)glycine] |
| 1.2 | N#Cc1cnc2c(c1)c(O)c(C(=O)NCC(=O)O)c(=O)n2Cc1ccc(C(F)(F)F)cc1 [Example 10, N-({6-Cyano-4-hydroxy-2-oxo-1-[4-(trifluoromethyl)benzyl]-1,2-dihydro-1,8-naphthyridin-3-yl}carbonyl)glycine] |
| 1.2 | NC(=O)c1ccc(Cn2c(=O)c(C(=O)NCC(=O)O)c(O)c3cccnc32)cc1 [Example 13, N-({1-[4-(Aminocarbonyl)benzyl]-4-hydroxy-2-oxo-1,2-dihydro-1,8-naphthyridin-3-yl}carbonyl)glycine] |
| 0.4 | O=C(O)CNC(=O)c1c(O)c2cccnc2n(Cc2cc(-c3ccccc3)no2)c1=O [Example 19, N-({4-Hydroxy-2-oxo-1-[(3-phenylisoxazol-5-yl)methyl]-1,2-dihydro-1,8-naphthyridin-3-yl}carbonyl)glycine] |
| 0.9 | O=C(O)CNC(=O)c1c(O)c2cccnc2n(Cc2noc(-c3ccccc3)n2)c1=O [Example 20, N-({4-Hydroxy-2-oxo-1-[(5-phenyl-1,2,4-oxadiazol-3-yl)methyl]-1,2-dihydro-1,8-naphthyridin-3-yl}carbonyl)glycine] |
| 0.8 | O=C(O)CNC(=O)c1c(O)c2cccnc2n(Cc2nc(-c3ccccc3)no2)c1=O [Example 21, N-({4-Hydroxy-2-oxo-1-[(3-phenyl-1,2,4-oxadiazol-5-yl)methyl]-1,2-dihydro-1,8-naphthyridin-3-yl}carbonyl)glycine] |
| 0.8 | O=C(O)CNC(=O)c1c(O)c2cccnc2n(Cc2nc(-c3ccccc3)cs2)c1=O [Example 22, N-({4-Hydroxy-2-oxo-1-[(4-phenyl-1,3-thiazol-2-yl)methyl]-1,2-dihydro-1,8-naphthyridin-3-yl}carbonyl)glycine] |
| 1.1 | O=C(O)CNC(=O)c1c(O)c2cccnc2n(Cc2nc3cc(Cl)ccc3s2)c1=O [Example 24, N-({1-[(5-Chloro-1,3-benzothiazol-2-yl)methyl]-4-hydroxy-2-oxo-1,2-dihydro-1,8-naphthyridin-3-yl}carbonyl)glycine] |
| 1.3 | Cc1nc(Cn2c(=O)c(C(=O)NCC(=O)O)c(O)c3cccnc32)sc1C [Example 26, N-({1-[(4,5-Dimethyl-1,3-thiazol-2-yl)methyl]-4-hydroxy-2-oxo-1,2-dihydro-1,8-naphthyridin-3-yl}carbonyl)glycine] |
